Source: patent US9265253B2, “Use of macrocyclic picolinamides as fungicides” (DOW AGROSCIENCES LLC, priority 2013, dated 2016)

Assays:
Assay type in all cases: in vivo
[1] = tested on: Blumeria graminis f. sp. hordei; Synonym: Erysiphe graminis f. sp. hordei; assay: Barley Powdery Mildew (ERYSGH) disease control; conditions: Blumeria graminis, 24 h, 1 Day Protectant, read-out: Disease Control ERYSGH 1 DP
Method: Technical grades of materials were dissolved in acetone, which were then mixed with nine volumes of water containing 110 ppm Triton X-100. The fungicide solutions were applied onto wheat seedlings using an automated booth sprayer to run-off. All sprayed plants were allowed to air dry prior to further handling. All fungicides were evaluated using the aforementioned method for their activity vs. all target diseases. Wheat leaf blotch and brown rust activity were also evaluated using track spray applications, in which case the fungicides were formulated as EC formulations, containing 0.1% Trycol 5941 in the spray solutions. Wheat plants (variety Yuma) were grown from seed in a greenhouse in 50% mineral soil/50% soil-less Metro mix until the first leaf was fully emerged, with 7-10 seedlings per pot. These plants were inoculated with an aqueous spore suspension of Septoria tritici either prior to or after fungicide treatments. After inoculation the plants were kept in 100% relative humidity (one day in a dark dew chamber followed by two to three days in a lighted dew chamber at 20° C.) to permit spores to germinate and infect the leaf. The plants were then transferred to a greenhouse set at 20° C. for disease to develop. When disease symptoms were fully expressed on the 1st leaves of untreated plants, infection levels were assessed on a scale of 0 to 100 percent disease severity. Percent disease control was calculated using the ratio of disease severity on treated plants relative to untreated plants. Barley seedlings (variety Harrington) were propagated in soil-less Metro mix, with each pot having 8 to 12 plants, and used in the test when first leaf was fully emerged. Test plants were inoculated by dusting with infected stock plants 24 hr after fungicide treatments. After inoculation the plants were kept in a greenhouse set at 20° C. for disease to develop. Fungicide formulation, application and disease assessment on the sprayed leaves followed the procedures as described in the Example A.

[2] = tested on: Erysiphe cichoracearum; assay: Powdery Mildew of Cucumber (ERYSCI) disease control; conditions: Golovinomyces cichoracearum, topical, 24 h, 1 Day Protectant, read-out: Disease Control ERYSCI 1 DP
Method: Technical grades of materials were dissolved in acetone, which were then mixed with nine volumes of water containing 110 ppm Triton X-100. The fungicide solutions were applied onto wheat seedlings using an automated booth sprayer to run-off. All sprayed plants were allowed to air dry prior to further handling. All fungicides were evaluated using the aforementioned method for their activity vs. all target diseases. Wheat leaf blotch and brown rust activity were also evaluated using track spray applications, in which case the fungicides were formulated as EC formulations, containing 0.1% Trycol 5941 in the spray solutions. Wheat plants (variety Yuma) were grown from seed in a greenhouse in 50% mineral soil/50% soil-less Metro mix until the first leaf was fully emerged, with 7-10 seedlings per pot. These plants were inoculated with an aqueous spore suspension of Septoria tritici either prior to or after fungicide treatments. After inoculation the plants were kept in 100% relative humidity (one day in a dark dew chamber followed by two to three days in a lighted dew chamber at 20° C.) to permit spores to germinate and infect the leaf. The plants were then transferred to a greenhouse set at 20° C. for disease to develop. When disease symptoms were fully expressed on the 1st leaves of untreated plants, infection levels were assessed on a scale of 0 to 100 percent disease severity. Percent disease control was calculated using the ratio of disease severity on treated plants relative to untreated plants. Cucumber seedlings (variety Bush Pickle) were grown in soil-less Metro mix, with one plant per pot, and used in the test when 12 to 14 days old. Plants were inoculated with a spore suspension 24 hr following fungicide treatments. After inoculation the plants remained in the greenhouse set at 20° C. until disease was fully expressed. Fungicide formulation, application and disease assessment on the sprayed leaves followed the procedures as described in the Example A.

[3] = tested on: Alternaria solani; assay: Tomato Early Blight (ALTESO) disease control; conditions: Alternaria solani, topical, 24 h, 1 Day Protectant, read-out: Disease Control ALTESO 1 DP
Method: Technical grades of materials were dissolved in acetone, which were then mixed with nine volumes of water containing 110 ppm Triton X-100. The fungicide solutions were applied onto wheat seedlings using an automated booth sprayer to run-off. All sprayed plants were allowed to air dry prior to further handling. All fungicides were evaluated using the aforementioned method for their activity vs. all target diseases. Wheat leaf blotch and brown rust activity were also evaluated using track spray applications, in which case the fungicides were formulated as EC formulations, containing 0.1% Trycol 5941 in the spray solutions. Wheat plants (variety Yuma) were grown from seed in a greenhouse in 50% mineral soil/50% soil-less Metro mix until the first leaf was fully emerged, with 7-10 seedlings per pot. These plants were inoculated with an aqueous spore suspension of Septoria tritici either prior to or after fungicide treatments. After inoculation the plants were kept in 100% relative humidity (one day in a dark dew chamber followed by two to three days in a lighted dew chamber at 20° C.) to permit spores to germinate and infect the leaf. The plants were then transferred to a greenhouse set at 20° C. for disease to develop. When disease symptoms were fully expressed on the 1st leaves of untreated plants, infection levels were assessed on a scale of 0 to 100 percent disease severity. Percent disease control was calculated using the ratio of disease severity on treated plants relative to untreated plants. Tomato plants (variety Outdoor girl) were propagated in soil-less Metro mix, with each pot having one plant, and used when 12 to 14 days old. Test plants were inoculated with an aqueous spore suspension of Alternaria solani 24 hr after fungicide treatments. After inoculation the plants were kept in 100% relative humidity (one day in a dark dew chamber followed by two to three days in a lighted dew chamber at 20° C.) to permit spores to germinate and infect the leaf. The plants were then transferred to a growth room at 22° C. for disease to develop. Fungicide formulation, application and disease assessment on the sprayed leaves followed the procedures as described in the Example A.

Compound: CCOCC(=O)OCOc1c(OC)ccnc1C(=O)N[C@H]1CCC[C@H](Cc2ccc(F)cc2)[C@@H](OCC(C)C)[C@H](C)OC1=O [Compound F168]
- pest or weed control at 100 ppm [1]: 80 to 100%

Compound: CCOCC(=O)OCOc1c(OC)ccnc1C(=O)N[C@H]1CCC[C@H](CC2CCCCC2)[C@@H](OCC(C)C)[C@H](C)OC1=O [Compound F175]
- pest or weed control at 100 ppm [1]: 80 to 100%
- pest or weed control at 100 ppm [2]: 0 to 80%
- pest or weed control at 100 ppm [3]: 80 to 100%

Compound: COc1ccnc(C(=O)N[C@H]2CCC[C@H](Cc3ccc(F)cc3)[C@@H](OCC(C)C)[C@H](C)OC2=O)c1OCOC(C)=O [Compound F102]
- pest or weed control at 100 ppm [1]: 0 to 80%

Compound: CCCO[C@@H]1[C@@H](Cc2ccc(F)cc2)CCC[C@H](NC(=O)c2nccc(OC)c2OCOC(C)=O)C(=O)O[C@H]1C [Compound F101]
- pest or weed control at 100 ppm [1]: 80 to 100%
- pest or weed control at 100 ppm [2]: 80 to 100%
- pest or weed control at 100 ppm [3]: 80 to 100%

Compound: CCOCC(=O)OCOc1c(OC)ccnc1C(=O)N[C@H]1CCC[C@H](Cc2ccccc2)[C@@H](OCC2CC2)[C@H](C)OC1=O [Compound F173]
- pest or weed control at 100 ppm [1]: 80 to 100%
- pest or weed control at 100 ppm [2]: 80 to 100%
- pest or weed control at 100 ppm [3]: 80 to 100%

Compound: CCCO[C@@H]1[C@@H](Cc2ccc(OC)cc2)CCC[C@H](NC(=O)c2nccc(OC)c2OCOC(C)=O)C(=O)O[C@H]1C [Compound F119]
- pest or weed control at 100 ppm [2]: 80 to 100%
- pest or weed control at 100 ppm [3]: 0 to 80%

Compound: COc1ccnc(C(=O)N[C@H]2CCC[C@H](Cc3ccccc3)[C@@H](OCC3CC3)[C@H](C)OC2=O)c1OCOC(C)=O [Compound F107]
- pest or weed control at 100 ppm [1]: 80 to 100%
- pest or weed control at 100 ppm [2]: 80 to 100%
- pest or weed control at 100 ppm [3]: 80 to 100%

Compound: COc1ccnc(C(=O)N[C@H]2CCC[C@H](CCBr)[C@@H](Oc3ccccc3)[C@H](C)OC2=O)c1OC(C)=O [Compound F80]
- pest or weed control at 100 ppm [1]: 0 to 80%
- pest or weed control at 100 ppm [3]: 0 to 80%

Compound: COc1ccnc(C(=O)N[C@H]2CCC[C@H](CC3CCCCC3)[C@@H](OCC(C)C)[C@H](C)OC2=O)c1OCOC(C)=O [Compound F113]
- pest or weed control at 100 ppm [1]: 80 to 100%
- pest or weed control at 100 ppm [2]: 80 to 100%
- pest or weed control at 100 ppm [3]: 80 to 100%

Compound: CC[C@H]1CCC[C@H](NC(=O)c2nccc(OC)c2OC(C)=O)C(=O)O[C@@H](C)[C@@H]1Oc1ccccc1 [Compound F81]
- pest or weed control at 100 ppm [1]: 0 to 80%
- pest or weed control at 100 ppm [2]: 0 to 80%
- pest or weed control at 100 ppm [3]: 0 to 80%

Compound: COc1ccc(C[C@H]2CCC[C@H](NC(=O)c3nccc(OC)c3OCOC(C)=O)C(=O)O[C@@H](C)[C@@H]2OCC(C)C)cc1 [Compound F118]
- pest or weed control at 100 ppm [2]: 0 to 80%
- pest or weed control at 100 ppm [3]: 0 to 80%

Compound: COc1ccnc(C(=O)N[C@H]2CCC[C@H](Cc3ccc(C)cc3)[C@@H](OCC(C)C)[C@H](C)OC2=O)c1OCOC(C)=O [Compound F126]
- pest or weed control at 100 ppm [2]: 80 to 100%
- pest or weed control at 100 ppm [3]: 0 to 80%

Compound: COc1ccnc(C(=O)N[C@H]2CCC[C@H](CC(F)F)[C@@H](Oc3ccccc3)[C@H](C)OC2=O)c1OC(C)=O [Compound F82]
- pest or weed control at 100 ppm [1]: 0 to 80%

Compound: CCCO[C@@H]1[C@@H](Cc2ccc(F)cc2)CCC[C@H](NC(=O)c2nccc(OC)c2OCOC(=O)COCC)C(=O)O[C@H]1C [Compound F167]
- pest or weed control at 100 ppm [1]: 80 to 100%
- pest or weed control at 100 ppm [2]: 80 to 100%
- pest or weed control at 100 ppm [3]: 80 to 100%

Compound: COc1ccnc(C(=O)N[C@H]2CCC[C@H](Cc3ccccc3)[C@@H](OCC3CC3)[C@H](C)OC2=O)c1OCOC(=O)C(C)C [Compound F152]
- pest or weed control at 100 ppm [1]: 80 to 100%
- pest or weed control at 100 ppm [2]: 80 to 100%
- pest or weed control at 100 ppm [3]: 80 to 100%

Compound: COc1ccnc(C(=O)N[C@H]2CCC[C@H](CC(F)F)[C@@H](Oc3ccccc3)[C@H](C)OC2=O)c1OCOC(C)=O [Compound F138]
- pest or weed control at 100 ppm [1]: 0 to 80%
